In assay [1] the target is T1, CXCR7 receptor (Homo sapiens (Human), UniProt P25106). Nature of the assay: Buffer Binding Analysis: displacement of 125I-labeled SDF-1 from CXCR7. Particulars: 125I SDF-1 displacement, buffer binding medium, MCF-7 and/or MDA-MB-435S CXCR7 transfected cells, 3 hr at 4° C.; read-out: Avg Bind IC50. On the procedure:
The compounds were combined with cells expressing the CXCR7 receptor (e.g., MCF cells or cells transfected to express CXCR7) in the presence of the 125 I-labeled SDF-1 chemokine as detailed in Determination of IC50 values. Reagents and Cells (see below). The ability of the compounds to displace the labeled chemokine from the CXCR7 receptor sites at multiple concentrations was then determined with the screening process.
Compounds that were deemed effective modulators were able to displace at least 50% of the SDF-1 from the CXCR7 receptor at concentrations at or below 15 micromolar (μM) but >2500 nM (+); and more preferably at concentrations from >500 nM to ≤2500 nM (++). At present, especially preferred compounds can displace at least 50% of the SDF-1 from the CXCR7 receptor at concentrations at or below 500 nM (+++). Exemplary compounds that met these criteria are reproduced in Table 1 and the Examples above. In Table 1, Avg Bind IC50 refers to the Buffer Binding Analysis described below, while Avg Ser IC50 refers to the Serum Binding Analysis described below. All compounds were prepared as described in the Examples above, or by related methods substituting readily available starting materials.
^125I-labeled SDF-1 was purchased from Perkin-Elmer Life Sciences, Inc. (Boston, Mass.). The MCF-7 (adenocarcinoma; mammary gland) cell line was obtained from the American Type Culture Collection (ATCC, Manassas, Va.) or and was cultured in DMEM (Mediatech, Herndon, Va.) supplemented with 10% fetal bovine serum (FBS) (HyClone Logan, Utah) and bovine insulin (0.01 mg/mL) (Sigma. St. Louis, Mo.) at 37° C. in a humidified incubator at a 5% CO2/air mixture. CXCR7 transfected MDA-MB-435S were produced as described below. MDA-MB-435S human breast cancer line, was purchased from ATCC, and cultured in DMEM/10% FBS medium. The complete coding sequence of the gene encoding CXCR7 (a.k.a. CCXCKR2, hRDC1), was isolated from MCF-7 cells using μMACs mRNA isolation kit (Miltenyi Biotec, Auburn, Calif.). DNA contamination was removed by DNase digestion via RNeasy columns (Qiagen, Inc., Valencia, Calif.) and cDNA was generated using GeneAmp RNA PCR Core Kit (Applied Biosystems, Foster City. Calif.). PCR of cDNA samples was performed using Taq PCR Master Mix kit (Qiagen. Inc.) and hRDC1 primers harboring 5′ and 3′ Not I sites (hRDC1F 5′ […]-3, hRDC1R 5′-[…]-3′) Not I digested PCR product was ligated into Not I digested pcDNA3.1(+)(Invitrogen, Carlsbad, Calif.) and screened for orientation and sequence confirmed. Plasmid DNA was then isolated from overnight bacterial cultures by Maxiprep (Qiagen, Inc.). Plasmid DNA (10 μg) was added to MDA-MB-435s cells and cells were electroporated (0.22 kV, 960 uF) via Gene Pulser (Biorad laboratories, Hercules, Calif.). 48 hr post-electroporation, cells were transferred to selection medium (600 ug/ml G418).
Target compounds can be tested to determine their ability to bind with CXCR7 sites on MCF-7 and/or MDA-MB-435S CXCR7 transfected cells. Efficiency-maxim/zed radioligand binding using filtration protocols as described in Dairaghi D J, et al., HHV8-encoded vMIP-I selectively engages chemokine receptor CCR5. Agonist and antagonist profiles of viral chemokines., J. Biol. Chem. 1999 Jul. 30; 274(31): 21569-74 and Gosling J. et al., Cutting edge: identification of a novel chemokine receptor that binds dendritic cell-and T cell-active chemokines including ELC. SLC, and TECK., J. Immunol. 2000 Mar. 15; 164(6):2851-6 was used.
In these assays, MCF-7 and/or MDA-MB-435S cells are interrogated with the target compounds and the ability of these compounds to displace ^125I radiolabeled SDF-1 assessed using the protocol described in Dairaghi and Gosling. […]

In assay [2] the target is T1, CXCR7 receptor. Nature of the assay: Serum Binding Analysis: displacement of 125I-labeled SDF-1 from CXCR7 in 100% human serum. Particulars: 125I SDF-1 displacement in 100% human serum, MCF-7 and/or MDA-MB-435S CXCR7 transfected cells, 3 hrs at 4° C.; read-out: Avg Ser IC50. The essentials: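 MCF-7 or CXCR7-transfected MDA-MB-435S cells incubated with compounds and 125I-SDF-1 in human AB serum plus 10 mM HEPES, pH 7.4, for 3 h at 4° C with gentle agitation. Bound radioligand separated by filtration; IC50 from displacement across multiple concentrations.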
In general terms: In a radioligand displacement assay an active substance lowers the binding of a labelled ligand.

The subject of another assay is C6 cells. Nature of the assay: Rat C6 model of glioblastoma. In kind it is in vivo. The conditions noted are these: C6 cells implanted into brains of Sprague-Dawley rats, tumors irradiated with 5-20 Gy after 7 days, then compound vs vehicle control. The protocol: Many tumor models in animals are known in the art, and may be employed to evaluate a compound of instance. For instance, in a rat C6 model of glioblastoma, 1×10^6 C6 cells were implanted by stereotactic injection into the into the brains of Sprague-Dawley rats. After 7 days tumors were irradiated with between 5-20 Gy of radiation. Following irradiation rats were treated (eg via subcutaneous, intraperitoneal, oral, parenteral or other route) with compound or vehicle control and tumors are allowed to progress. Animals were followed until death or loss of >20% weight, or removed for tumor induced neurodeficits eg seizures and immobility in according with appropriate regulations and standards.

The structures appear in SMILES notation. Where only a bound is given, the exact number is not on record here.

T1 sequence (P25106 whole entry): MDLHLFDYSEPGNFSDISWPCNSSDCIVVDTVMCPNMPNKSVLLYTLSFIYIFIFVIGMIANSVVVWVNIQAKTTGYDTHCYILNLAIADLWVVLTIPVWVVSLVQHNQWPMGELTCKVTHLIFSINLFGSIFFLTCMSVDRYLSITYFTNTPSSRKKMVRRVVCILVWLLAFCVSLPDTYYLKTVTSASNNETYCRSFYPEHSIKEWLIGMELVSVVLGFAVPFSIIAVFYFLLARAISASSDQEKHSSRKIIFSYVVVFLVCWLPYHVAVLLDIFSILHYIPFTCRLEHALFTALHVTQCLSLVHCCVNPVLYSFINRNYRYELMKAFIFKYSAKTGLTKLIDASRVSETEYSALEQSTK

As for `O=C(N[C@H]1CCN(c2nccn3ccnc23)C1)c1ncn(-c2ccc(F)cc2)n1` [Compound 1.090], the IC50 at CXCR7 receptor [1] and on CXCR7 receptor [2] was no more than 500 nM each time. The “antitumor activity (delay in tumor growth, Kaplan Meier analysis of survival)” value in the assay with C6 cells is given as “profound antitumor activity”.

The values are drawn from US10287292B2, “CXCR7 antagonists” (CHEMOCENTRYX, INC., priority 2012, dated 2019).
